Source: patent US20110002953A1, “USE OF IMMIDAZOQUINOLINAMINES AS ADJUVANTS IN DNA VACCINATION” (priority 2000, published 2011)

What was measured:
[1] = tested on: IL-4-producing (Th2) cells; assay: IL-4 ELISPOT on lymph node cells after pVAC1.OVA vaccination, adoptive transfer model; assay type: in vivo, Balb/c mice; conditions: for IL-4 producing cells, in words: pVAC1.OVA + adjuvant versus plasmid without adjuvant
Experimental: (§1) Splenocytes were prepared as in example 1 above.
(§2) Th CD4+ subsets were assessed using the adoptive transfer model (example 2, above). IFN-γ-producing (Th1) and IL-4-producing (Th2) cells were assayed by ELISPOT (example 1, above). […] No cytokine producing cells were detected in empty vector immunised controls.
(§3) Cartridges were prepared using the pVAC1.OVA plasmid, immunisations and T cell responses were as described in example 2.

[2] = tested on: cytotoxic T cell response; assay: CD8+ T cell-restricted IFN-γ ELISPOT of splenocytes after particle mediated vaccination with pVAC1.PR (influenza nucleoprotein plasmid); assay type: in vivo, C57B1/6 mice
Experimental: The cytotoxic T cell response was assessed by CD8+ T cell-restricted IFN-γ ELISPOT assay of splenocytes collected one week later. Mice were killed by cervical dislocation and spleens were collected into ice-cold PBS. Splenocytes were teased out into phosphate buffered saline (PBS) followed by lysis of red blood cells (1 minute in buffer consisting of 155 mM NH4Cl, 10 mM KHCO3, 0.1 mM EDTA). After two washes in PBS to remove particulate matter the single cell suspension was aliquoted into ELISPOT plates previously coated with capture IFN-γ antibody and stimulated with CD8-restricted cognate peptide. After overnight culture, IFN-γ producing cells were visualised by application of anti-murine IFN-γ-biotin labelled antibody (Pharmingen) followed by streptavidin—conjugated alkaline phosphatase and quantitated using image analysis.

[3] = tested on: IFN-γ-producing (Th1) cells; assay: IFN-γ ELISPOT on lymph node cells after pVAC1.OVA vaccination, adoptive transfer model; assay type: in vivo, Balb/c mice; conditions: for IFN-γ producing cells, in words: pVAC1.OVA + adjuvant versus plasmid without adjuvant
Experimental: as §1, §2, §3

[4] = tested on: cytotoxic T cells (HIV antigens Gag and Nef); assay: IFN-γ ELISPOT of splenocytes with CD8-restricted Gag and Nef peptides after prime/boost vaccination with WRG7077.Gag/Nef; assay type: in vivo, Balb/c mice
Experimental: Here mice received a primary immunisation followed by a boost immunisation 42 days later.
IFN-γ ELISPOT assays were performed as described (example 1), using CD8-restricted cognate peptides for the Gag and Nef antigens to stimulate splenocytes collected 5 days after the boost immunisation.
Cartridges were prepared using the WRG7077Gag/Nef plasmid, PMID immunisations and T cell responses were as described in example 5. […] Spleens were collected for analysis 6 and 11 days after the boost immunisation.

EG7-OVA cells = assay: Tumour challenge with EG7-OVA cells after immunisation with pVAC1.OVA; assay type: in vivo, mice
[5] = imiquimod 100 mg/kg s.c. at boost only, splenocytes 5 days after boost, versus plasmid with vehicle

CC(C)Cn1cnc2c(N)nc3ccccc3c21 [imiquimod, 1-(2-methylpropyl)-1H-imidazo[4,5-c]quinolin-4-amine]
IL-4 producing cells, in words [1]: increased | cytotoxic T cells, control plasmid (pVAC1) + imiquimod versus vehicle ([2]; empty vector pVAC1, imiquimod 30 mg/kg s.c.): No difference | number of cytotoxic T cells in the spleens, pVAC1.PR + imiquimod versus pVAC1.PR + vehicle ([2]; imiquimod 30 mg/kg single s.c. injection at immunisation site, splenocytes one week later): 3 times | cytotoxic T-cell response following vaccination with pVAC1.PR (FIG. 1) ([2]; in words): increases | IFN-γ producing cells, in words [3]: increased | Th1/Th2 bias: increase of IFN-γ versus IL-4 producing cells ([3]; pVAC1.OVA + imiquimod, ELISPOT): more substantial for IFN-γ compared with IL-4 | increase in cytotoxic T cells, imiquimod s.c. injection ([4]; 30 mg/kg s.c., 11 days after boost, versus plasmid with s.c. vehicle): approximately 2 fold | increase in cytotoxic T cells, imiquimod topically ([4]; 20 μl of 5% (w/v) cream (Aldara) at PMID site, 11 days after boost, versus plasmid with s.c. vehicle): approximately 2 fold | increase in cytotoxic T cells, Gag [4, 5]: 10 fold | increase in cytotoxic T cells, Nef [4, 5]: 100 fold | cytotoxic T-cell response following vaccination with WRG7077.Gag/Nef (FIG. 5) ([4]; in words): increases | cytotoxic T-cell response, topical application (FIG. 8) ([4]; in words): increases | growth of tumours (FIG. 9) (EG7-OVA cells; in words): delays | tumourigenicity of EG7.OVA tumour cells (FIG. 10) (EG7-OVA cells; in words): reduces | tumourigenicity (EG7-OVA cells; mice immunised with pVAC1.OVA + imiquimod 30 mg/kg s.c., 100,000 cells/mouse two weeks after boost): 25% | appearance of palpable tumours (EG7-OVA cells; pVAC1.OVA + imiquimod 30 mg/kg s.c. compared with pVAC1.OVA alone): most delayed

CCOCc1nc2c(N)nc3ccccc3c2n1CC(C)(C)O [Resiquimod, 1-(2-hydroxy-2-methylpropyl)-2-ethoxymethyl-1-H-imidazo[4,5-c]quinolin-4-amine]
effect on IL-4 producing CD4 T cells ([1]; 1 mg/kg, lymph node cells 5 days after immunisation): only a modest effect | IL-4 producing cells, in words [1]: increased | increase of IFN-γ producing CD4 T cells ([3]; 1 mg/kg (apparently optimal dose), lymph node cells 5 days after immunisation): six | IFN-γ producing cells, in words [3]: increased

CC(C)(O)Cn1cnc2c(N)nc3ccccc3c21 [1-(2-hydroxy-2-methylpropyl)-1H-imidazo[4,5-c]quinolin-4-amine]
IL-4 producing cells, in words [1]: increased | IFN-γ producing cells, in words [3]: increased

Cc1nc2c(N)nc3ccccc3c2n1CC(C)(C)O [1-(2-hydroxy-2-methylpropyl)-2-methyl-1H-imidazo[4,5-c]quinolin-4-amine]
IL-4 producing cells, in words [1]: increased | increase in IL-4 producing CD4 T cells ([1]; single dose 30 mg/kg, 5 days after immunisation): Two | IFN-γ producing cells, in words [3]: increased
